One assay deals with Bmi-1 protein. As to the kind of experiment: Sandwich ELISA Assay (Bmi-1 protein level in HT-1080 cells after compound treatment). The assay is classed as cell-based. The following applies: Table 1, Bmi-1 sandwich ELISA, read-out: ELISA EC50 value for Bmi-1 protein. The gist of the method:
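Sandwich ELISA quantified Bmi-1 protein against recombinant standard (125–8000 pg/mL), with lysates captured overnight at 4 °C and signal by HRP/TMB at 450 nm (570 nm reference). Lysates came from HT-1080 cells incubated 40–48 h with test compounds in 0.5% DMSO.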
(In general: In an ELISA, binding on a coated surface is turned into a signal by an enzyme label.)
On to `CCc1nn2ccccc2c1-c1cc(C#N)cc(Nc2ccc(OC(F)F)c(F)c2)n1` [compound 528, 2-{[4-(difluoromethoxy)-3-fluorophenyl]amino}-6-(2-ethylpyrazolo[1,5-a]pyridin-3-yl)pyridine-4-carbonitrile], for which the EC50 was in the range of 10 to 100 nM.
Turning to `N#Cc1cc(Nc2ccc(OC(F)F)cc2)nc(-c2c(C(F)(F)F)nc3ccc(F)cn23)c1` [compound 273, 2-{[4-(difluoromethoxy)phenyl]amino}-6-[6-fluoro-2-(trifluoromethyl)imidazo[1,2-a]pyridin-3-yl]pyridine-4-carbonitrile], the concentration giving a half-maximal response (EC50) lay within 1 to 10 nM.
On to `Cc1cc(-c2cncc(Nc3ccc(C(F)(F)F)cc3)n2)ccn1` [compound 353, 6-(2-methylpyridin-4-yl)-N-[4-(trifluoromethyl)phenyl]pyrazin-2-amine], for which the concentration giving a half-maximal response (EC50) was 100 to 3000 nM.
Turning to `Cc1nn2ccccc2c1-c1cncc(Nc2ccc(C#N)cc2)n1` [compound 571, 4-{[6-(2-methylpyrazolo[1,5-a]pyridin-3-yl)pyrazin-2-yl]amino}benzonitrile], the EC50 was in the range of 10 to 100 nM.
As to `CNCc1nc2ccccn2c1-c1cncc(Nc2ccc(C(F)(F)F)cc2)n1` [compound 302, 6-{2-[(methylamino)methyl]imidazo[1,2-a]pyridin-3-yl}-N-[4-(trifluoromethyl)phenyl]pyrazin-2-amine], the 50% effective concentration (EC50) lay in the range of 100 to 3000 nM.
In the case of `Cc1nc2c(n1-c1cncc(Nc3ccc(C(F)(F)F)cc3)n1)CCCC2` [compound 267, 6-(2-methyl-4,5,6,7-tetrahydro-1H-benzimidazol-1-yl)-N-[4-(trifluoromethyl)phenyl]pyrazin-2-amine], the concentration giving a half-maximal response (EC50) was in the range of 1 to 10 nM.
Same read-out and setting: for `COc1cccc(Nc2cncc(-n3c(C)nc4ccccc43)n2)c1` [compound 557, N-(3-methoxyphenyl)-6-(2-methyl-1H-benzimidazol-1-yl)pyrazin-2-amine] the value was 100 to 3000 nM.
Take `Cc1nc2cc(F)c(F)cc2n1-c1cncc(Nc2ccc(C(F)(F)F)c(F)c2)n1` [compound 295, 6-(5,6-difluoro-2-methyl-1H-benzimidazol-1-yl)-N-[3-fluoro-4-(trifluoromethyl)phenyl]pyrazin-2-amine]: the concentration giving a half-maximal response (EC50) lay in the range of 10 to 100 nM.
Turning to `Cc1ccc(Nc2cncc(-c3c(CO)nc4ccccn34)n2)cc1` [compound 214, (3-{6-[(4-methylphenyl)amino]pyrazin-2-yl}imidazo[1,2-a]pyridin-2-yl)methanol], the concentration for a half-maximal effect (EC50) is below 1 nM.
With `COc1ccc(Nc2cccc(-c3c(C(F)(F)F)nc4ccccn34)n2)cc1Cl` [Cpd 3, N-(3-chloro-4-methoxyphenyl)-6-[2-(trifluoromethyl)imidazo[1,2-a]pyridin-3-yl]pyridin-2-amine], the concentration giving a half-maximal response (EC50) lay within 1 to 10 nM.
Same read-out and setting: for `FC(F)(F)c1nc2ccccn2c1-c1cncc(Nc2ccc(Cl)c(Cl)c2)n1` [Cpd 29, N-(3,4-dichlorophenyl)-6-[2-(trifluoromethyl)imidazo[1,2-a]pyridin-3-yl]pyrazin-2-amine] the value was 10 to 100 nM; for `CCc1nc2ncncc2n1-c1cncc(Nc2ccc(C(F)(F)F)cc2)n1` [compound 94, 6-(8-ethyl-7H-purin-7-yl)-N-[4-(trifluoromethyl)phenyl]pyrazin-2-amine], 100 to 3000 nM; for `O=[N+]([O-])c1cc(Nc2ccc(C(F)(F)F)cc2)nc(-c2c(C(F)(F)F)nc3ccccn23)c1` [compound 158, 4-nitro-6-[2-(trifluoromethyl)imidazo[1,2-a]pyridin-3-yl]-N-[4-(trifluoromethyl)phenyl]pyridin-2-amine], 10 to 100 nM.
Consider `Cc1nc2ccc(F)cc2n1-c1cc(C#N)cc(Nc2ccc(Cl)cc2)n1` [compound 612, 2-[(4-chlorophenyl)amino]-6-(6-fluoro-2-methyl-1H-benzimidazol-1-yl)pyridine-4-carbonitrile], for which the concentration for a half-maximal effect (EC50) lay within 10 to 100 nM.
Same read-out and setting: for `Cc1nc(Br)cn1-c1cncc(Nc2ccc(C(F)(F)F)cc2)n1` [compound 298, 6-(4-bromo-2-methyl-1H-imidazol-1-yl)-N-[4-(trifluoromethyl)phenyl]pyrazin-2-amine] the value was 100 to 3000 nM; for `COc1ccc2nc(C(F)(F)F)c(-c3cncc(Nc4ccc(C(F)(F)F)cc4)n3)n2c1` [Cpd 46, 6-[6-methoxy-2-(trifluoromethyl)imidazo[1,2-a]pyridin-3-yl]-N-[4-(trifluoromethyl)phenyl]pyrazin-2-amine], 10 to 100 nM; for `CNc1nc2ccccc2n1-c1cncc(Nc2ccc(OC(F)F)cc2)n1` [compound 187, 1-(6-{[4-(difluoromethoxy)phenyl]amino}pyrazin-2-yl)-N-methyl-1H-benzimidazol-2-amine], 1 to 10 nM.
On to `CCc1nc2cc(F)c(F)cc2n1-c1cc(N)c(F)c(Nc2ccc(C(F)(F)F)cc2)n1` [compound 509, 6-(2-ethyl-5,6-difluoro-1H-benzimidazol-1-yl)-3-fluoro-N^2-[4-(trifluoromethyl)phenyl]pyridine-2,4-diamine], for which the concentration for a half-maximal effect (EC50) was 10 to 100 nM.
For the molecule `COc1ccc(Nc2cncc(-c3c(C(F)(F)F)nc4ccc(F)cn34)n2)cc1` [Cpd 57, 6-[6-fluoro-2-(trifluoromethyl)imidazo[1,2-a]pyridin-3-yl]-N-(4-methoxyphenyl)pyrazin-2-amine], the 50% effective concentration (EC50) is below 1 nM.
With `Nc1cc(Nc2ccc(C(F)(F)F)c(F)c2)nc(-c2c(C3CC3)nc3ccc(F)cn23)c1` [compound 364, 6-(2-cyclopropyl-6-fluoroimidazo[1,2-a]pyridin-3-yl)-N^2-[3-fluoro-4-(trifluoromethyl)phenyl]pyridine-2,4-diamine], the EC50 fell in the range of 10 to 100 nM.
Consider `CCc1cnc(C)n1-c1cncc(Nc2ccc(C(F)(F)F)cc2)n1` [Cpd 372, 6-(5-ethyl-2-methyl-1H-imidazol-1-yl)-N-[4-(trifluoromethyl)phenyl]pyrazin-2-amine], for which the half-maximal effective concentration (EC50) was 100 to 3000 nM.
With `FC(F)(F)c1nc2ccccn2c1-c1cncc(Nc2ccc(Br)c(Cl)c2)n1` [Cpd 31, N-(4-bromo-3-chlorophenyl)-6-[2-(trifluoromethyl)imidazo[1,2-a]pyridin-3-yl]pyrazin-2-amine], the EC50 lay in the range of 10 to 100 nM.
For `Cc1nn2ccc(F)cc2c1-c1cncc(Nc2ccc(C(F)(F)F)cc2)n1` [compound 537, 6-(5-fluoro-2-methylpyrazolo[1,5-a]pyridin-3-yl)-N-[4-(trifluoromethyl)phenyl]pyrazin-2-amine], the concentration for a half-maximal effect (EC50) is 10 to 100 nM.
With `Cc1nc(C)n(-c2cncc(Nc3ccc(C(F)(F)F)cc3)n2)c1Cl` [compound 299, 6-(5-chloro-2,4-dimethyl-1H-imidazol-1-yl)-N-[4-(trifluoromethyl)phenyl]pyrazin-2-amine], the EC50 fell in the range of 100 to 3000 nM.
Regarding `CCSc1nc2ccccc2n1-c1cncc(Nc2ccc(C(F)(F)F)cc2)n1` [compound 79, 6-[2-(ethylsulfanyl)-1H-benzimidazol-1-yl]-N-[4-(trifluoromethyl)phenyl]pyrazin-2-amine], the EC50 lay in the range of 10 to 100 nM.
`FC(F)(F)Oc1ccc(Nc2cccc(-n3c(C(F)(F)F)nc4ccccc43)n2)cc1` [Cpd 39, N-[4-(trifluoromethoxy)phenyl]-6-[2-(trifluoromethyl)-1H-benzimidazol-1-yl]pyridin-2-amine]: the EC50 was in the range of 100 to 3000 nM.
Take `Cc1nc2ccccc2n1-c1cc(C#N)cc(Nc2ccc(OC(F)F)cc2)n1` [Cpd 135, 2-{[4-(difluoromethoxy)phenyl]amino}-6-(2-methyl-1H-benzimidazol-1-yl)pyridine-4-carbonitrile]: the EC50 lay within 10 to 100 nM.
As for `Cc1nc2c(F)cc(F)cc2n1-c1cc(C#N)cc(Nc2ccc(C(F)(F)F)cc2)n1` [Cpd 447, 2-(4,6-difluoro-2-methyl-1H-benzimidazol-1-yl)-6-{[4-(trifluoromethyl)phenyl]amino}pyridine-4-carbonitrile], the EC50 is 10 to 100 nM.
Turning to `Nc1ccc(Nc2cncc(-c3c(C(F)(F)F)nc4ccccn34)n2)cc1` [Cpd 60, N-{6-[2-(trifluoromethyl)imidazo[1,2-a]pyridin-3-yl]pyrazin-2-yl}benzene-1,4-diamine], the 50% effective concentration (EC50) fell in the range of 10 to 100 nM.
`Cc1nc2ccccc2n1-c1cncc(Nc2ccc(C(C)C)cc2)n1` [compound 661, 6-(2-methyl-1H-benzimidazol-1-yl)-N-[4-(propan-2-yl)phenyl]pyrazin-2-amine]: the EC50 is 10 to 100 nM.
Turning to `FC(F)Oc1ccc(Nc2cncc(-c3c(C4CC4)nc4ccc(C(F)(F)F)cn34)n2)cc1` [compound 251, 6-[2-cyclopropyl-6-(trifluoromethyl)imidazo[1,2-a]pyridin-3-yl]-N-[4-(difluoromethoxy)phenyl]pyrazin-2-amine], the concentration giving a half-maximal response (EC50) lay in the range of 10 to 100 nM.
`Cc1nc2cc(F)c(F)cc2n1-c1cc(N)cc(Nc2ccc(C(F)(F)F)cc2)n1` [compound 231, 6-(5,6-difluoro-2-methyl-1H-benzimidazol-1-yl)-N^2-[4-(trifluoromethyl)phenyl]pyridine-2,4-diamine]: the EC50 was in the range of 10 to 100 nM.
As to `Cc1nn(C)c(Cl)c1-c1cncc(Nc2ccc(OC(F)F)c(F)c2)n1` [compound 415, 6-(5-chloro-1,3-dimethyl-1H-pyrazol-4-yl)-N-[4-(difluoromethoxy)-3-fluorophenyl]pyrazin-2-amine], the concentration for a half-maximal effect (EC50) lay within 10 to 100 nM.
As to `COc1ccc(Nc2cccc(-n3c(C)cc4ccccc43)n2)cc1` [compound 174, N-(4-methoxyphenyl)-6-(2-methyl-1H-indol-1-yl)pyridin-2-amine], the concentration for a half-maximal effect (EC50) is 100 to 3000 nM.
On the same count and under the same terms, for `FC(F)(F)c1ccc(Nc2cncc(-c3ccnc(-c4ccnc(Cl)c4)c3)n2)cc1` [compound 354, 6-(2′-chloro-2,4′-bipyridin-4-yl)-N-[4-(trifluoromethyl)phenyl]pyrazin-2-amine] the value was 100 to 3000 nM.

Staying with this assay, now noted: read-out: ELISA EC50 value for Bmi-1 protein, Table 1, Bmi-1 sandwich ELISA.
For the molecule `Cc1nc(Cl)c(Cl)n1-c1cncc(Nc2ccc(C(F)(F)F)cc2)n1` [Cpd 297, 6-(4,5-dichloro-2-methyl-1H-imidazol-1-yl)-N-[4-(trifluoromethyl)phenyl]pyrazin-2-amine], the concentration giving a half-maximal response (EC50) lay within 100 to 3000 nM.
As to `COc1ccc(Nc2cccc(-n3c(C)nc4ccccc43)n2)cc1` [Cpd 32, N-(4-methoxyphenyl)-6-(2-methyl-1H-benzimidazol-1-yl)pyridin-2-amine], the EC50 lay in the range of 1 to 10 nM.

As usually defined, the EC50 is the midpoint of the concentration-response curve.

The values above are taken from patent US10584115B2, “Substituted pyridine and pyrazine BMI-1 inhibitors” (PTC Therapeutics, Inc., priority 2013, dated 2020).
